{"source": "patent US20250127774A1", "about": "“COMPOUNDS FOR LABELLING NUCLEIC ACID AND USES THEREOF” (THE ROYAL INSTITUTION FOR THE ADVANCEMENT OF …, priority 2022, published 2025)", "assay": "PINK stability test", "assay_type": "physicochemical", "conditions": "20 μM PINK, 1 mM b.p. CT-DNA, PBS pH 7.4 (10% DMSO)", "method": "B) Fluorescence changes (excitation: 500 nm, emission: 590 nm; 515 nm cutoff filter) of 20 μM PINK in the presence of 1 mM b.p. CT-DNA (50 eq) in PBS pH 7.4 (10% DMSO) followed by addition of 5-norbornene-2-methanol (2 mM, 100 eq).\nPINK Stability Test. Fluorescence changes (excitation: 500 nm, emission: 590 nm; 515 nm cutoff filter) of 20 μM PINK were monitored in the presence of 1 mM base pairs of calf thymus (CT) DNA (50 eq) in PBS pH 7.4 (10% DMSO) followed by addition of 5-norbornene-2-methanol (2 mM, 100 eq). Measurements were conducted on a SpectraMax M5 plate reader (Molecular Devices, Sunnyvale, CA, USA) in 1 cm path-length quartz cuvettes.", "data": [{"smiles": "Cc1nnc(-c2ccc3cc4ccc(N(C)C)cc4nc3c2)nn1", "note": "[PINK]", "values": [{"measurement": "degradation of PINK on extended incubation with unmodified DNA", "result": "little-to-no degradation"}]}]}
